Holding throughout (format): cell-based
For assay [1], the system named is S1T (cell strain originated from an ATL patient). Description: Growth inhibition of S1T cells, 4-day culture, MTT method. To be noted: for IC50: S1T cells, 4 days; for Selectivity to ATL cell (S1T) in words: S1T versus MOLT-4; for Selectivity index on the S1T cell (SI = IC50 for MOLT-4/IC50 for S1T): screen with S1T and MOLT-4. The procedure:
(§1) In the presence of various agents, S1T (cell strain originated from an ATL patient), MT-2 (HTLV-1 infected cell strain), and as controls, MOLT-4 (acute lymphoblastic leukemia cell strain), CEM (acute lymphoblastic leukemia cell strain), HL-60 (acute promyelocytic leukemia cell strain), and Jurkat (acute T-cell leukemia cell strain) were cultivated for 4 days, and the growth inhibitory effects of compounds on the respective cells were evaluated by the MIT method.
(§2) In the presence of various concentrations of agents, SIT (cell strain originated from an ATL patient) and as a control MOLT-4 (acute lymphoblastic leukemia cell strain) were cultivated for 4 days, and the growth inhibitory effects of the compounds on the respective cells were evaluated by the MTT method.

Assay [2] relates to MOLT-4 (acute lymphoblastic leukemia cell strain). The assay can be described thus: Growth inhibition of MOLT-4 control cells, 4-day culture, MTT method. To be noted: MOLT-4 cells, 4 days. Here is the method: as §1, §2
Background: Formazan colour is commonly taken as a measure of viable cells.

Assay [3] has as its system MT-2 (HTLV-1 infected cell strain). The assay can be described thus: Growth inhibition of MT-2 cells, 4-day culture. To be noted: 4 days. The procedure: (§3) In the presence of various agents, […] (cell strain originated from an ATL patient), MT-2 (HTLV-1 infected cell strain), and as controls, MOLT-4 (acute lymphoblastic leukemia cell strain), CEM (acute lymphoblastic leukemia cell strain), HL-60 (acute promyelocytic leukemia cell strain), and Jurkat (acute T-cell leukemia cell strain) were cultivated for 4 days, and the growth inhibitory effects of compounds on the respective cells were evaluated by the MIT method.

Assay [4] has as its system CEM (acute lymphoblastic leukemia cell strain). Description: Growth inhibition of CEM control cells, 4-day culture. To be noted: 4 days. The procedure: as §3
In assay [5] the test system is HL-60 (acute promyelocytic leukemia cell strain). The assay can be described thus: Growth inhibition of HL-60 control cells, 4-day culture. To be noted: HL-60 cells, 4 days. The procedure: as §3
Assay [6] concerns Jurkat (acute T-cell leukemia cell strain). The assay can be described thus: Growth inhibition of Jurkat control cells, 4-day culture. To be noted: 4 days. The procedure: as §3
Where [7] appears, read: Homo sapiens, 96 h, Table 2, MTT, mean of at least 2 experiments, read-out: IC50 (μM) S1T cell.
[8] abbreviates: Table 2, selectivity to ATL cell (IC50 for MOLT-4/IC50 for S1T).
Where [9] appears, read: Homo sapiens, 96 h, Table 2, MTT, mean of at least 2 experiments, read-out: IC50 (μM) MOLT-4 cell.
Where [10] appears, read: Table 2, MTT, mean of at least 2 experiments, read-out: IC50 (μM) S1T cell.
[11] abbreviates: Table 2, MTT, mean of at least 2 experiments, read-out: IC50 (μM) MOLT-4 cell.
The mark [12] stands for this setting: Homo sapiens, 96 h, Table 1, concentration to inhibit cell growth by 50%, read-out: IC50 (μM) S1T.
Setting [13] is: Table 1, selectivity index = IC50 for MOLT-4/IC50 for S1T.
Setting [14] is: Homo sapiens, 96 h, Table 1, concentration to inhibit cell growth by 50%, read-out: IC50 (μM) MOLT-4.

These results are taken from patent publication US8765719B2, “Therapeutic drug for adult T-cell leukemia” (Kagoshima University, priority 2008, dated 2014).

Like-named read-outs stand apart in the source and are kept apart here. Some results are limits rather than exact numbers.

On to `CCC(=O)c1cc2c(cc1O)C(C)(C)CCC2(C)C` [Agent A, 5,6,7,8-tetrahydro-3-hydroxy-5,5,8,8-tetramethyl-2-naphthyl ethyl ketone], for which the figures for the IC50 in assay [1] (setting [7]) and in assay [2] (setting [9]) were 4.7 ± 1.3 µM and 32.3 ± 5.4 µM, respectively. Also, in assay [1] (setting [8]), the SI worked out at 6.9.
The matching figures for `CC(C)C(=O)c1cc2c(cc1O)C(C)(C)CCC2(C)C` [Agent B, 5,6,7,8-tetrahydro-3-hydroxy-5,5,8,8-tetramethyl-2-naphthyl isopropyl ketone]: 6 ± 0.7 µM, 31.9 ± 0.2 µM and 5.3.
As to `CC(C)(C)C(=O)c1cc2c(cc1O)C(C)(C)CCC2(C)C` [Agent C, 5,6,7,8-tetrahydro-3-hydroxy-5,5,8,8-tetramethyl-2-naphthyl tert-butyl ketone], the IC50 in assay [1] (setting [7]) is 41.5 ± 0.8 µM; in assay [2] (setting [9]), 43.2 ± 2.4 µM. In addition, in assay [1] (setting [8]), the SI was 1.0.
On the same counts, the results for `CC1(C)CCC(C)(C)c2cc(C(=O)c3ccccc3)c(O)cc21` [Agent D, 5,6,7,8-tetrahydro-3-hydroxy-5,5,8,8-tetramethyl-2-naphthyl phenyl ketone] are 15.2 ± 2.3 µM, 28.3 ± 0.7 µM and 1.9.
The matching figures for `CCC(=O)c1ccc2c(c1)C(C)(C)CCC2(C)C` [Agent E, 5,6,7,8-tetrahydro-5,5,8,8-tetramethyl-2-naphthyl ethyl ketone]: 3.3 ± 1 µM, 21.5 ± 2.2 µM and 6.5.
Turning to `CC(C)C(=O)c1ccc2c(c1)C(C)(C)CCC2(C)C` [Agent F, 5,6,7,8-tetrahydro-5,5,8,8-tetramethyl-2-naphthyl isopropyl ketone], the values for the IC50 in assay [1] (setting [7]) and in assay [2] (setting [9]) were 3.8 ± 2.1 µM and 34.6 ± 1.5 µM, respectively. The SI in assay [1] (setting [8]) is 9.1.
Consider `CC(=S)c1cc2c(cc1O)C(C)(C)CCC2(C)C` [Agent G, 5,6,7,8-tetrahydro-3-hydroxy-5,5,8,8-tetramethyl-2-naphthyl ethanethione], for which the results for the IC50 in assay [1] (setting [10]) and in assay [2] (setting [11]) were 6.9 ± 2.3 µM and 36.4 ± 2.1 µM, respectively. The same compound returned an SI in assay [1] (setting [8]) of 5.3.
Regarding `CC1(C)CCC(C)(C)c2cc(C(=O)c3ccccc3)ccc21` [Agent H, 5,6,7,8-tetrahydro-5,5,8,8-tetramethyl-2-naphthyl phenyl ketone], the figures for the IC50 in assay [1] (setting [7]) and in assay [2] (setting [9]) were 7 ± 0.9 µM and 11.8 ± 2.2 µM, respectively. This compound also showed an SI in assay [1] (setting [8]) of 1.7.
As for `CON(C)C(=O)c1ccc2c(c1)C(C)(C)CCC2(C)C` [Agent J, 5,6,7,8-tetrahydro-5,5,8,8-tetramethyl-2-naphthyl-N-methoxy-N-methylamide], the IC50 in assay [1] (setting [10]) was found to be 12.6 ± 2.1 µM; in assay [2] (setting [11]), 9.9 µM. Moreover, the SI in assay [1] (setting [8]) is recorded as under 1.0.
The matching figures for `CC1(C)CCC(C)(C)c2cc(C(N)=O)ccc21` [Agent K, 5,6,7,8-tetrahydro-5,5,8,8-tetramethyl-2-naphthyl amide]: 37 ± 2.1 µM, 39.4 ± 10.4 µM and 1.1.
On the same counts, the results for `CN(C)C=CC(=O)c1cc2c(cc1O)C(C)(C)CCC2(C)C` [Agent M, 5,6,7,8-tetrahydro-3-hydroxy-5,5,8,8-tetramethyl-2-naphthyl 13-(N,N-dimethylamino)vinyl ketone] are 2.1 ± 0.1 µM, 9.3 ± 0.9 µM and 4.4.
For the compound `CC1(C)CCC(C)(C)c2cc3c(=O)ccoc3cc21` [Agent N, 6,7,8,9-tetrahydro-6,6,9,9-tetramethyl-4H-naphtho[2,3-b]pyran-4-one], the IC50 in assay [1] (setting [7]) amounted to 1.9 ± 0.2 µM; in assay [2] (setting [9]), 14.5 ± 1.9 µM. The compound also yielded an SI in assay [1] (setting [8]) of 7.6.
Regarding `CC1(C)CCC(C)(C)c2cc3c(cc21)OCCC3=O` [Agent O, 2,3,6,7,8,9-hexahydro-6,6,9,9-tetramethyl-4H-naphtho[2,3-b]pyran-4-one], the IC50 in assay [1] (setting [7]) amounted to 6.7 ± 0.9 µM; in assay [2] (setting [9]) it was 13.6 ± 2.6 µM. The SI in assay [1] (setting [8]) turned out to be 2.0.
Take `O=C([O-])c1ccccc1O.[Na+]` [Sodium salicylate, reference compound]: the IC50 in assay [1] (setting [12]) turned out to be 1570 µM; in assay [2] (setting [14]), 1320 µM. Moreover, in assay [1], the “Selectivity to ATL cell (S1T) in words” value is listed as “no selectivity to S1T was recognized”. This compound also came in with an SI in assay [1] (setting [13]) of 0.84.
As to `CC1(C)CCC(C)(C)c2cc(C(=O)O)ccc21` [TMBA, reference compound], the IC50 is over 100 µM in assay [1] (setting [12]) and 61.1 µM in assay [2] (setting [14]). In assay [1] (setting [13]), this compound gave an SI of under 0.61.
As to `CC(=O)c1ccc2c(c1)C(C)(C)CCC2(C)C` [TMN(COCH3), 5,6,7,8-tetrahydro-5,5,8,8-tetramethyl-2-naphthyl methyl ketone], the IC50 in assay [1] (setting [12]) came out at 6.9 µM; in assay [2] (setting [14]), 66 µM. Besides, in assay [1], the “Selectivity to ATL cell (S1T) in words” value was “higher selectivity to an ATL cell than other derivatives with analogous structures”. This compound also came in with an SI in assay [1] (setting [13]) of 9.6.
On the same counts, the results for `COc1cc2c(cc1C(C)=O)C(C)(C)CCC2(C)C` [TMN(OCH3) (COCH3)] are 7 µM, 11.9 µM, “higher selectivity to an ATL cell than other derivatives with analogous structures” and 1.7.
Consider `CC1(C)CCC(C)(C)c2ccccc21` [TMN, reference compound], for which the IC50 in assay [1] (setting [12]) and in assay [2] (setting [14]) was over 100 µM each time.
Regarding `CC(=O)c1cc2c(cc1O)C(C)(C)CCC2(C)C` [TMNAA, 5,6,7,8-tetrahydro-3-hydroxy-5,5,8,8-tetramethyl-2-naphthyl methyl ketone], the “Concentration at which growth of an ATL cell is selectively inhibited in comparison to the control” value in assay [1] (FIG. 1) is at least 4 µM. For the same compound, the IC50 in assay [1] (setting [12]) worked out at 5 µM; in assay [2] (setting [14]), 53.8 µM. In addition, the “Selectivity to ATL cell (S1T) in words” value in assay [1] is on record as “higher selectivity to an ATL cell than other derivatives with analogous structures”. For the same compound, in assay [1] (setting [13]), the SI is on record as 10.8. Moreover, the “Selectivity index on the S1T cell (SI = IC50 for MOLT-4/IC50 for S1T)” value is recorded as at least 10 in assay [1] and “above 10” in assay [1] (listed as compound of the formula III). Also, the “Growth inhibitory effect on MT-2” value in assay [3] is given as “specific inhibitory effect solely on MT-2”. Further, the “Growth inhibitory effect on CEM” value in assay [4] is listed as “specific inhibitory effect solely on MT-2”. For the same compound, in assay [5], the “Growth inhibitory effect on HL-60” value was “specific inhibitory effect solely on MT-2”. Besides, the “Growth inhibitory effect on Jurkat” value in assay [6] is “specific inhibitory effect solely on MT-2”.
On to `CC1(C)CCC(C)(C)c2cc(C(=O)O)c(O)cc21` [TNBAA, reference compound], for which the IC50 is 29.7 µM in assay [1] (setting [12]) and 44.4 µM in assay [2] (setting [14]). This compound gave an SI in assay [1] (setting [13]) of 1.49.

Usually IC50 stands for the point on the concentration scale where inhibition reaches its midpoint.
